Earlier results, collected in patent US12201720B2, “Pharmaceutical composition comprising GHB gastro-retentive raft forming systems having trigger pulse drug release” (Tris Pharma, Inc., priority 2017, dated 2025).
Where two headings read alike, the source gives them in different places.

Conditions: descriptive statement

For `O=C(O)CCCO` [Sodium oxybate], the “Solubility in water / aqueous solutions” value is given as “very soluble” and the “Solubility in water / aqueous solutions” value (listed as Sodium GHB) is given as “highly water-soluble”.
